Patent US11713318B2, “Short conjugated oligoelectrolytes and uses thereof” (The Regents Of The University Of California, priority 2018, dated 2023)
Read-outs that look alike come from different tables or passages of the source. Blank lines part the entries; values can stand above or below the compound they belong to.

Legend:
[1] = tested on: S. epidermidis (ATCC 14990); assay: MIC broth microdilution method, Table 3; conditions: Staphylococcus epidermidis, ATCC14990
[2] = tested on: E. coli K12 (ATCC 47076); assay: MIC broth microdilution method, Table 3; conditions: Escherichia coli, ATCC47076
[3] = Cytotoxicity, MTT assay; format: cell-based; conditions: human, Hep G2 (ATCC HB-8065) cells; Hep G2; at the concentration given as IC50 bound; read-out: cell viability at the highest or lowest test concentration
Method: (§1) Before removing the frozen cell stocks from liquid nitrogen, culture medium was pre-warmed to 37° C. The frozen tube was then removed from liquid nitrogen and placed into a 37° C. water bath and shaken gently to thaw the cell stock as quickly as possible. A small portion of the pre-warmed culture medium was added to the cell solution. The cell suspension was then centrifuged at 1000 r/min for 3 minutes. The supernatant was discarded and the cells were resuspended in fresh culture medium.
(§2) NIH 3T3 (ATCC CRL-1658) and Hep G2 (ATCC HB-8065) cells were cultured with DMEM+10% FBS in 100 mm dishes. Cells were lifted for subculture or testing when confluence reached ˜60% by treating with 1× trypsin (incubated for 3 min at 37° C.). J774 (ATCC TIB-67) cells were cultured with DMEM+10% FBS in 100 mm dishes. Cells were lifted for subculture or testing when confluence reached ˜80% using a cell scraper. RAW264.7 (ATCC TIB-71) cells were cultured with DMEM+10% heat-inactivated FBS+1% pen/strep in T75 flasks. Cells were lifted for subculture or testing when confluence reached ˜80% using a cell scraper.
(§3) • 1. Cells were lifted and resuspended in culture medium. The number of cells in the cell suspension was determined using an auto-cell counter: 10 μL of the cell suspension was mixed with 10 μL 1× trypan blue (filtered with 0.2 μm PES filter) and the mixture was loaded onto a cell counting slide. Based on the concentration of viable cells, the cell suspension was further diluted to achieve the desired density. • 2. Cells were seeded in 96 well plates by adding 100 μL final cell suspension column-by-column using a multichannel pipette (5000 cells/well for NIH 3T3, 10000 cells/well for Hep G2, J774 and RAW264.7). The outer wells were block with PBS to reduce the effects of evaporation. One column was filled with only culture medium as a blank. Cells were incubated overnight before adding the test articles. • 3. Test articles were dissolved in 1×PBS (or DMSO) to obtain stocks solution. Stock solutions were pre-warmed before use. […] Serial dilutions (2-fold) of the 10× solutions were made in sterile culture tubes by diluting in 1×PBS (8 dilutions to yield 9 test concentrations). 900 μL of culture media was added to each tube to obtain final drug solution containing 10% PBS (or less than 1% DMSO) for each experimental group. • 4. The original culture medium was gently removed from the 96-well plates using a pipette. 100 μL of the test article solutions prepared in Step 3 were added to rows 2-7 of each column to obtain six replicates for each concentration. Plates were then incubated for 24 hours. • 5. MTT solutions were prepared by dissolving commercial MTT powder in 1×PBS to a concentration of 5 mg/mL. After passing through a 0.22 μm PES filter, the MTT solution was divided into 1 mL portions in sterile centrifuge tubes and stored at −20° C. • 6. MTT stock solutions were removed from the freezer to thaw at room temperature. Before adding MTT solutions, cell cultures were visually inspected and imaged using a microscope (to use as a comparison with MTT results). 10 μL of the 5 mg/mL MTT solution was added to each well and the plate was incubated for 4 hours. • 7. After 4 h incubation, the culture medium/MT solution was removed gently using a pipette. 100 μL of DMSO was added to each well using a multichannel pipette. The 96-well plates were analyzed in a plate reader using the following method: shake for 5 minutes, wait for 30 seconds, and measure absorbance at 570 nm. • 8. Data processing: The average of background Abg was calculated from the blank column. All other data was first treated by subtracting Abg. The average A. and standard deviation Se of each experimental group and the average Ac and standard deviation Sc for control group (with pure culture medium incubation) were then calculated. The cell viability was determined as Ae/Ac×100% and corresponding error as Se/Ae×100%. Significant outliers in any experimental or control group were removed. […]

[4] = tested on: Hep G2 (ATCC HB-8065) cells; assay: Cytotoxicity, MTT assay; format: cell-based; conditions: Homo sapiens, HepG2, 24 h
Method: as §1, §2, §3

[5] = tested on: A. baumannii 1674627 (MDR); assay: MIC against resistant strains, Tables 5a-5d; format: cell-based; conditions: Acinetobacter baumannii, n = 3
Method: (§4) Compounds described herein were evaluated for growth inhibition against a variety of bacterial species, including strains that have developed resistance to common antibacterial treatments, according to the procedure described herein, or by analogous procedures known to those skilled in the art. Resistant bacterial strains used for compound testing include methicillin-resistant S. aureus (MRSA), vancomycin resistant Enterococci (VRE) and various multi-drug resistant (MDR) strains commonly associated with hospital-acquired (nosocomial) infections, including, but not limited to A. baumannii, K. pnuemoniae, and E. cloacae.

[6] = tested on: A. baumannii CDC0290 (MDR); assay: MIC against resistant strains, Tables 5a-5d; format: cell-based; conditions: Acinetobacter baumannii, n = 3
Method: as §4

[7] = tested on: E. cloacae 1744299 (ESBL); assay: MIC against resistant strains, Tables 5a-5d; format: cell-based; conditions: Enterobacter cloacae, n = 3
Method: as §4

[8] = tested on: E. coli ATCC25922 (WT); assay: MIC against resistant strains, Tables 5a-5d; format: cell-based; conditions: Escherichia coli, n = 3
Method: as §4

[9] = tested on: E. faecium 1674620 (VRE); assay: MIC against resistant strains, Tables 5a-5d; format: cell-based; conditions: Enterococcus faecium, n = 3
Method: as §4

[10] = tested on: K. pneumoniae ATCC BAA-2473 (MDR); assay: MIC against resistant strains, Tables 5a-5d; format: cell-based; conditions: Klebsiella pneumoniae, ATCCBAA2473, n = 3
Method: as §4

[11] = tested on: K. pneumoniae CDC0010 (MDR); assay: MIC against resistant strains, Tables 5a-5d; format: cell-based; conditions: Klebsiella pneumoniae, n = 3
Method: as §4

[12] = tested on: P. aeruginosa 1674623 (MDR); assay: MIC against resistant strains, Tables 5a-5d; format: cell-based; conditions: Pseudomonas aeruginosa, n = 3
Method: as §4

[13] = tested on: P. aeruginosa CDC0248 (MDR); assay: MIC against resistant strains, Tables 5a-5d; format: cell-based; conditions: Pseudomonas aeruginosa, n = 3
Method: as §4

[14] = tested on: S. aureus ATCC 33591 (MRSA); assay: MIC against resistant strains, Tables 5a-5d; format: cell-based; conditions: Staphylococcus aureus, n = 3
Method: as §4

[15] = tested on: S. aureus ATCC BAA-1717 (MRSA); assay: MIC against resistant strains, Tables 5a-5d; format: cell-based; conditions: Staphylococcus aureus, n = 3
Method: as §4

[16] = tested on: NIH 3T3 (ATCC CRL-1658) cells; assay: Cytotoxicity, MTT assay; format: cell-based; conditions: Mus musculus, NIH3T3; NIH 3T3; MTT, 24 hours incubation; read-out: IC50
Method: as §1, §2, §3

[17] = Hep G2, MTT, 24 hours incubation, read-out: IC50

MIC [1]: 16 µg/mL
MIC [2]: 32 µg/mL
Compound: C[N+](C)(CCCN)CCCOc1cc(/C=C/c2ccc(/C=C/c3cc(OCCC[N+](C)(C)CCCN)cc(OCCC[N+](C)(C)CCCN)c3)cc2)cc(OCCC[N+](C)(C)CCCN)c1 [Formula PP]

Compound: C[N+](C)(C)CCCCCCN(CCCCCC[N+](C)(C)C)c1ccc(/C=C/c2ccc(/C=C/c3ccc(/C=C/c4ccc(N(CCCCCC[N+](C)(C)C)CCCCCC[N+](C)(C)C)cc4)cc3)cc2)cc1 [Formula VV]
viability at 24 h [3]: 64%
IC50 [4, 17]: > 128 µg/mL

MIC [5]: 64 µg/mL
MIC [6]: 64 µg/mL
MIC [7]: 8 µg/mL
MIC [8]: 8 µg/mL
MIC [9]: 4 µg/mL
MIC [10]: 16 µg/mL
MIC [11]: 32 µg/mL
MIC [12]: > 64 µg/mL
MIC [13]: > 64 µg/mL
MIC [14]: 1 µg/mL
MIC [15]: 2 µg/mL
MIC [2]: 16 µg/mL
Compound: CC[N+](C)(C)CCCCOc1cc(/C=C/c2ccc(/C=C/c3cc(OCCCC[N+](C)(C)CC)cc(OCCCC[N+](C)(C)CC)c3)cc2)cc(OCCCC[N+](C)(C)CC)c1.[I-].[I-].[I-].[I-] [Formula P]

MIC [5]: 32 µg/mL
MIC [6]: 32 µg/mL
MIC [7]: 4 µg/mL
MIC [8]: 1 µg/mL
MIC [9]: 1 µg/mL
MIC [10]: 4 µg/mL
MIC [11]: 16 µg/mL
MIC [12]: 64 µg/mL
MIC [13]: 64 µg/mL
MIC [14]: 1 µg/mL
MIC [15]: 2 µg/mL
MIC [2]: 4 µg/mL
Compound: CCCC[N+](C)(C)CCOc1cc(/C=C/c2ccc(/C=C/c3cc(OCC[N+](C)(C)CCCC)cc(OCC[N+](C)(C)CCCC)c3)cc2)cc(OCC[N+](C)(C)CCCC)c1.[I-].[I-].[I-].[I-] [Formula G]
IC50 [4, 17]: 889 µg/mL

MIC [1]: > 64 µg/mL
MIC [2]: > 128 µg/mL
Compound: C[N+](C)(CCCOc1cc(/C=C/c2ccc(/C=C/c3cc(OCCC[N+](C)(C)CC(O)CO)cc(OCCC[N+](C)(C)CC(O)CO)c3)cc2)cc(OCCC[N+](C)(C)CC(O)CO)c1)CC(O)CO (centres unmarked) [Formula OO]
viability at 24 h [3]: 61%
IC50 [4, 17]: > 1020 µg/mL

MIC [2]: 32 µg/mL
Compound: CC[N+](C)(C)CCCOc1cc(/C=C/c2ccc(/C=C/c3cc(OCCC[N+](C)(C)CC)cc(OCCC[N+](C)(C)CC)c3)cc2)cc(OCCC[N+](C)(C)CC)c1 [Formula Y]
viability at 24 h [3]: 61%
IC50 [4, 17]: > 1020 µg/mL

MIC [1]: 2 µg/mL
MIC [2]: 16 µg/mL
Compound: C[N+](C)(C)CCCCCCOc1cc(/C=C/c2ccc(/C=C/c3ccccc3)cc2)cc(OCCCCCC[N+](C)(C)C)c1OCCCCCC[N+](C)(C)C [Formula WW]
IC50 [4, 17]: 45.4 µg/mL
IC50 [16]: 30.9 µg/mL

Compound: C[C@@H](O)[C@H]1C(=O)N2C(C(=O)O)=C(S[C@@H]3CN[C@H](C(=O)N(C)C)C3)[C@H](C)[C@H]12 [Meropenem, reference compound]
viability at 24 h [3]: 96%
IC50 [4, 17]: > 128 µg/mL

Compound: C[N+](C)(C)CCCCCCN(CCCCCC[N+](C)(C)C)c1ccc(/C=C/c2ccc(/C=C/c3ccc(N(CCCCCC[N+](C)(C)C)CCCCCC[N+](C)(C)C)cc3)cc2)cc1 [Formula UU]
IC50 [4, 17]: 43.7 µg/mL

Compound: C(=C\c1cc(OCCCCCC[n+]2ccccc2)cc(OCCCCCC[n+]2ccccc2)c1)/c1cc(OCCCCCC[n+]2ccccc2)cc(OCCCCCC[n+]2ccccc2)c1.[I-].[I-].[I-].[I-] [Formula C]
IC50 [4]: 29.7 µg/mL
